From patent US11999700B1, “[4,4-bis(4-nitrophenyl)-2,5-dioxoimidazolidin-1-yl]acetic acid as an antimicrobial compound” (KING FAISAL UNIVERSITY, priority 2023, dated 2024)

Tests used:
Format in all cases: cell-based
Candida albicans = assay: Antimicrobial testing by agar dilution, Candida albicans; conditions: Candida albicans fungi, after 10, 20, 40 and 60 minutes at all dilutions 1:100, 1:200, 1:400, 1:800
Protocol: (§1) The antimicrobial properties of the [4,4-bis(4-nitrophenyl)-2,5-dioxoimidazolidin-1-yl]acetic acid were studied by the method of agar dilution. Test solutions of each compound was prepared in concentration of 1% using dimethylformamide as a solvent then they are diluted in physiological solution to obtain the final experimental dilutions 1:100, 1:200, 1:400, 1:800. The effect of these substances are compared with furacillin in a controlable study. The testing microbes used were gram positive bacteria Staphylococcus Aereus, gram negative bacteria Escherichia Coli, Pseudomonas aeruginosa and Candida albicans fungi were taken.
(§2) The experiments used for this survey were meat-pentonlu agar (EPA) for cultivation of bacteria and Saburo environment for fungi. Each experiment used 1 ml of test solution on each plate 500 min. Add 2 drops of emulsified with microbes feel. All experimental samples were taken from the agar after 10, 20, 40, 60 minutes in the environment on the basis of Patrk planted. Bacteria were cultivated at a temperature of 37° C. for 1 day and the mushroom was kept in a thermostat for […] at a temperature of 28° C. in the. Then results were checked.

Escherichia Coli = assay: Antimicrobial testing by agar dilution, E. Coli; conditions: after 10, 20, 40 and 60 minutes at all dilutions 1:100, 1:200, 1:400, 1:800
Protocol: as §1, §2

Pseudomonas aeruginosa = assay: Antimicrobial testing by agar dilution, Ps. aeruginosa; conditions: after 10, 20, 40 and 60 minutes at all dilutions 1:100, 1:200, 1:400, 1:800
Protocol: as §1, §2

Staphylococcus Aereus = assay: Antimicrobial testing by agar dilution, St. Aereus; conditions: after 10, 20, 40 and 60 minutes at all dilutions 1:100, 1:200, 1:400, 1:800
Protocol: as §1, §2

Measured: inhibition activity

O=C(O)CN1C(=O)NC(c2ccc([N+](=O)[O-])cc2)(c2ccc([N+](=O)[O-])cc2)C1=O [[4,4-bis(4-nitrophenyl)-2,5-dioxoimidazolidin-1-yl]acetic acid]
higher inhibition activity: all assays above
